# Experimental data taken from PMC12598616, “Design and optimization of caspase-1-responsive fluorescent probes for pyroptosis imaging and anti-pyroptosis drug screening” (Chemical Science, 2025).
# Legend:
# [1] = test system: cleaved Cas-1; assay: Western blot of cleaved Cas-1; format: cell-based; details: control and treated groups
# [2] = test system: activated Cas-1 in primary peritoneal macrophages; assay: High-content screening / fluorescence imaging for caspase-1 modulators in primary peritoneal macrophages; format: cell-based, mouse; details: natural product 10 μM with Nig 10 μM 2 h after LPS 4 h; FPy1 5 μM
# Description: The efficient and rapid discovery of Cas-1 modulators is of significant importance considering the therapeutic potential of Cas-1 in various diseases.[39,40] Therefore, we employed FPy1 to construct a high-content screening system aimed at identifying Cas-1 modulators. The level of activated Cas-1 in cells is influenced by multiple factors. To reduce the impact of factors that affect Cas-1 activation in cells, we utilized the NLRP3 inflammasome-mediated Cas-1 activation model, administering the drug during the second stage where the zymogen was converted into activated Cas-1. MCC950, a selective NLRP3 inflammasome inhibitor that could suppress Cas-1 activation, was selected as the positive drug.[41] […] To validate the efficacy of the Cas-1 modulator screening system (Fig. 6a), we first observed the fluorescence images of PMs stained with FPy1 (5 μM) in the control group, model group, and positive drug group. […] Subsequently, the impact of 25 natural products (10 μM) on activated Cas-1 were studied using high-content analysis (Fig. S20). […] To determine whether deoxyshikonin directly binds to Cas-1 and inhibits its activity, we conducted fluorescence detection following co-incubation of deoxyshikonin, FPy1 and Cas-1. […]
# Harvested rat discs were fixed in 4 % buffered paraformaldehyde for 24 hours, decalcified in 10 % ethylenediaminetetraacetic acid (EDTA, Solarbio, E8030) solution for 1 month, embedded in paraffin, and sectioned at a thickness of 5 μm. […] Stained sections were evaluated by three independent raters, blinded to the research protocol, and measurements were averaged for statistical analysis. […]
# In vivo fluorescence imaging of intervertebral disc degeneration
# Twelve rats were modeled with needle puncture-induced intervertebral disc degeneration at the Co5/6, Co6/7 and Co 7/8 levels. […] In vivo fluorescence images were acquired using an in vivo Imaging System (PerkinElmer). […]
# In vivo fluorescence imaging of osteoarthritis […]
# [3] = test system: Cas-1; assay: Fluorescence detection after co-incubation of deoxyshikonin, FPy1 and Cas-1; format: biochemical, human
# Description: The efficient and rapid discovery of Cas-1 modulators is of significant importance considering the therapeutic potential of Cas-1 in various diseases.[39,40] Therefore, we employed FPy1 to construct a high-content screening system aimed at identifying Cas-1 modulators. The level of activated Cas-1 in cells is influenced by multiple factors. To reduce the impact of factors that affect Cas-1 activation in cells, we utilized the NLRP3 inflammasome-mediated Cas-1 activation model, administering the drug during the second stage where the zymogen was converted into activated Cas-1. MCC950, a selective NLRP3 inflammasome inhibitor that could suppress Cas-1 activation, was selected as the positive drug.[41] […] To validate the efficacy of the Cas-1 modulator screening system (Fig. 6a), we first observed the fluorescence images of PMs stained with FPy1 (5 μM) in the control group, model group, and positive drug group. […] Subsequently, the impact of 25 natural products (10 μM) on activated Cas-1 were studied using high-content analysis (Fig. S20). […] To determine whether deoxyshikonin directly binds to Cas-1 and inhibits its activity, we conducted fluorescence detection following co-incubation of deoxyshikonin, FPy1 and Cas-1. […] Overall, FPy1 could serve as an effective tool for the rapid identification of lead compounds that modulate Cas-1 activity within a high-content analysis platform. […]
compound,measurement,setting,value
CC(C)=CCCC1=CC(=O)c2c(O)ccc(O)c2C1=O [deoxyshikonin],activated Cas-1 level (Western blot),[1],"significantly inhibit the activation of Cas-1, reducing activated Cas-1 levels"
same,"fluorescence intensity of FPy1 relative to model group, high-content analysis",[2],significant reduction in fluorescence intensity compared to the model group
same,fluorescence at 585 nm in presence of compound (direct Cas-1 inhibition),[3],the fluorescence at 585 nm was lower in the presence of deoxyshikonin
